From PubChem BioAssay (NCI) come the findings set out here.

Among the test systems are HCC-2998 colon; IGROV1 ovarian; MOLT-4 leukemia; NCI-H23 lung; OVCAR-5 ovarian; PC-3 prostate; RXF 393 renal; SF-295 CNS; SK-MEL-2 melanoma; UO-31 renal.
Common to all, as to experiment: DTP human tumour cell line panel, 48 h

Each structure is given as a SMILES string.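 Grown in 96-well plates, cells were treated for 48 hours with each compound at five concentrations. Insufficient inhibition: endpoint recorded as highest concentration tested. The concentration for 50% growth inhibition is given as GI50. At the TGI there is no net growth.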

On to `Fc1ccc(-c2c(-c3ccncc3)nc3n2CCS3)cc1`, for which the GI50 with HCC-2998 colon, with IGROV1 ovarian, in the assay with MOLT-4 leukemia, in the assay with NCI-H23 lung, with OVCAR-5 ovarian and in the assay with PC-3 prostate was above 25 µM each time. For the same compound, the GI50 – broadly, the concentration at which growth is held to half of that of the control – in the assay with RXF 393 renal was above 12.9 µM; in the assay with SF-295 CNS it was above 25 µM; in the assay with SK-MEL-2 melanoma it was above 25 µM; with UO-31 renal it was above 25 µM. Also, the total growth inhibition concentration (TGI) in the assay with HCC-2998 colon, in the assay on IGROV1 ovarian, in the assay on MOLT-4 leukemia, in the assay with NCI-H23 lung, in the assay with OVCAR-5 ovarian and with PC-3 prostate was above 25 µM each time. Also, the TGI in the assay on RXF 393 renal, with SF-295 CNS, in the assay with SK-MEL-2 melanoma and with UO-31 renal was above 25 µM in each case.

As to `Cc1cc2c(C(=O)NC[C@H](C)c3ccccc3)c(O)c(O)cc2c(O)c1-c1c(C)cc2c(C(=O)NC[C@H](C)c3ccccc3)c(O)c(O)cc2c1O`, the GI50 was 0.932 µM in the assay with HCC-2998 colon; 0.0909 µM in the assay with IGROV1 ovarian; 0.199 µM in the assay on MOLT-4 leukemia; 0.0571 µM in the assay on NCI-H23 lung; 0.503 µM with OVCAR-5 ovarian; 0.342 µM in the assay with PC-3 prostate. Moreover, the GI50 in the assay with RXF 393 renal was 0.197 µM; in the assay on SF-295 CNS, 0.131 µM; in the assay on SK-MEL-2 melanoma, 0.596 µM; in the assay on UO-31 renal, 0.285 µM. For the same compound, the TGI (as a rule, the concentration giving total growth inhibition) with HCC-2998 colon turned out to be 3.08 µM; with IGROV1 ovarian, 11.3 µM; in the assay with MOLT-4 leukemia, 7.8 µM; in the assay with NCI-H23 lung, 1.65 µM; in the assay on OVCAR-5 ovarian it was 5.03 µM; in the assay with PC-3 prostate, 1.46 µM. The TGI in the assay with RXF 393 renal amounted to 0.895 µM; in the assay on SF-295 CNS it was 0.702 µM; with SK-MEL-2 melanoma, 4.23 µM; with UO-31 renal it was 1.24 µM.

In the case of `O=C1Nc2c(ccc(Cl)c2Cl)/C1=C/c1cc(Br)c(O)c(Br)c1`, the GI50 was 6.59 µM in the assay with HCC-2998 colon; 8.91 µM in the assay with IGROV1 ovarian; 4.37 µM with MOLT-4 leukemia; 4.91 µM with NCI-H23 lung; 20.6 µM in the assay on OVCAR-5 ovarian; 5.23 µM in the assay with PC-3 prostate. Besides, the GI50 with RXF 393 renal is 7.32 µM; in the assay on SF-295 CNS, 2.71 µM; with SK-MEL-2 melanoma it was 5.15 µM; in the assay with UO-31 renal, 14.5 µM. In addition, the TGI is 32.5 µM in the assay with HCC-2998 colon; above 55.8 µM in the assay on IGROV1 ovarian; above 76.4 µM in the assay with MOLT-4 leukemia; above 65.7 µM with NCI-H23 lung; above 74 µM with OVCAR-5 ovarian; above 100 µM in the assay with PC-3 prostate. For the same compound, the TGI in the assay with RXF 393 renal is 35.2 µM; with SF-295 CNS, 19.8 µM; in the assay on SK-MEL-2 melanoma, 20.9 µM; in the assay on UO-31 renal, above 49.7 µM.

As to `O=c1c2ccccc2sc2c(NCCCNCCO)nc3ccccc3c12`, the GI50 in the assay with HCC-2998 colon was 1.72 µM; in the assay on IGROV1 ovarian, 1.35 µM; in the assay on MOLT-4 leukemia, 1.26 µM; with NCI-H23 lung it was 2.01 µM; with OVCAR-5 ovarian, 1.56 µM; in the assay on PC-3 prostate, 1.49 µM. Moreover, the GI50 is 1.46 µM with RXF 393 renal, 1.83 µM in the assay on SF-295 CNS, 1.87 µM in the assay on SK-MEL-2 melanoma and 1.18 µM in the assay with UO-31 renal. In addition, the TGI in the assay with HCC-2998 colon is 3.64 µM; with IGROV1 ovarian, 3.17 µM; with MOLT-4 leukemia, 3.32 µM; in the assay with NCI-H23 lung, 7.55 µM; in the assay on OVCAR-5 ovarian, 3.31 µM; in the assay on PC-3 prostate it was 2.98 µM. The TGI came out at 3.52 µM in the assay on RXF 393 renal, 4.11 µM in the assay with SF-295 CNS, 3.62 µM in the assay with SK-MEL-2 melanoma and 3 µM in the assay on UO-31 renal.

Consider `Cc1c(-c2cnccn2)ssc1=S`, for which the TGI in the assay with HCC-2998 colon, with IGROV1 ovarian, with MOLT-4 leukemia, in the assay on NCI-H23 lung, in the assay on OVCAR-5 ovarian and in the assay on PC-3 prostate was above 100 µM in each case. The TGI in the assay with RXF 393 renal is 80.9 µM; with SF-295 CNS, above 95.1 µM; in the assay with SK-MEL-2 melanoma it was above 100 µM; in the assay with UO-31 renal, above 89.7 µM.

Consider `O=C(CSc1nc2c(n1Nc1ccccc1)-c1ccccc1SC2)Nc1nc(-c2ccc(Cl)cc2)cs1`, for which the GI50 in the assay with HCC-2998 colon was above 100 µM; in the assay on IGROV1 ovarian, 12.5 µM; with MOLT-4 leukemia, above 100 µM; in the assay on NCI-H23 lung, 6.48 µM; in the assay on OVCAR-5 ovarian it was above 100 µM; in the assay with PC-3 prostate, above 100 µM. Moreover, the GI50 in the assay with RXF 393 renal was 15.8 µM; in the assay on SF-295 CNS it was 11.3 µM; in the assay on SK-MEL-2 melanoma it was 37.2 µM; with UO-31 renal, above 100 µM. In addition, the TGI in the assay on HCC-2998 colon was above 100 µM; with IGROV1 ovarian, 78.2 µM; with MOLT-4 leukemia, above 100 µM; in the assay on NCI-H23 lung, 97.1 µM; in the assay on OVCAR-5 ovarian it was above 100 µM; in the assay with PC-3 prostate it was above 100 µM. For the same compound, the TGI was 43.4 µM in the assay with RXF 393 renal, 33.5 µM with SF-295 CNS, above 100 µM in the assay with SK-MEL-2 melanoma and above 100 µM in the assay on UO-31 renal.

In the case of `COc1c/c(=C2\C=c3ccccc3=N2)[nH]/c1=C\c1[nH]c(C)cc1C`, the GI50 with HCC-2998 colon was 0.185 µM; with IGROV1 ovarian, 0.102 µM; with MOLT-4 leukemia, below 0.0203 µM; in the assay with NCI-H23 lung, 0.0986 µM; in the assay on OVCAR-5 ovarian it was 0.25 µM; in the assay with PC-3 prostate it was 0.12 µM. Also, the GI50 in the assay with RXF 393 renal was 0.538 µM; in the assay with SF-295 CNS, 0.034 µM; with SK-MEL-2 melanoma, 0.0753 µM; in the assay with UO-31 renal, below 0.0106 µM. Further, the TGI with HCC-2998 colon was 33.7 µM; in the assay with IGROV1 ovarian, 17.7 µM; in the assay with NCI-H23 lung, 7.08 µM; in the assay on OVCAR-5 ovarian, above 56.5 µM; in the assay on PC-3 prostate, 31.3 µM; with RXF 393 renal, above 100 µM. Further, the TGI in the assay with SF-295 CNS was 0.593 µM; in the assay on SK-MEL-2 melanoma, 2.27 µM; with UO-31 renal, 0.32 µM.
